Test results reported in patent US7527935B2, “G-protein coupled receptor having eicosanoid as ligand and gene thereof” (Mitsubishi Tanabe Pharma Corporation, priority 2002, dated 2009).

Columns and labels:
[1] = tested on: TG1019 (5-oxo-ETE receptor); test: Migration test using CHO cells stably expressing TG1019; type: cell-based, human; conditions: 5 hours
Method: The cells stably expressing TG1019 and the cells not expressing the same obtained in the above section (1) were cultured in a medium (DMEM/F12 medium supplemented with 10% fetal bovine serum [GibcoBRL]), containing 800 μg/ml of hygromycin B. The cells which were 80 to 90% confluent were dissociated by a cell dissociation buffer, and the cells were washed twice by centrifugation (600×g, 5 minutes, 4° C.) with 10 ml of RPMI1640 culture medium supplemented with 0.1% BSA Then, the cells were prepared to a concentration of 1×10^6 cells/ml in the same medium.
Cell migration test was carried out using 2 chambers for migration test (Transwell; 8 μm pore, 24 well, 3422 [Costar]). Chambers were set in a plate, and a solution (600 μl) containing 5-oxo-ETE was added to the lower chamber, and the cell solution (100 μl) was added to the upper chamber, to start the reaction. Migration was carried out at 37° C. for 5 hours in a CO2 incubator.
The chambers were removed, and […] of the solution in the lower chamber was transferred to a tube, and centrifuged at 600×g, 3 minutes, 4° C. 300 μl of the supernatant was removed, and RPMI1640 culture medium supplemented with 0.1% BSA (not containing phenol red) was added, if needed, to adjust a volume of the cell solution to 300 μl. The number of the cells migrated to the lower chamber were counted by flow cytometer.

[2] = tested on: neutrophils; test: Migration test of neutrophils; type: cell-based; conditions: purified human neutrophils; 2 hours
Method: Neutrophils were purified as follows. Blood was collected (50 ml) from healthy male adult volunteers. Then, 12.5 ml each of the collected blood was poured into a 50 ml tube containing 23 ml physiological saline, and, the total volume was adjusted to 40 ml with physiological saline. To a bottom of the tube, Percoll solution (specific gravity: 1.079±0.004, 10 ml) was gently added, and the mixture was centrifuged at 430×g, for 20 minutes at room temperature, without deceleration or acceleration.
After washing the eosinophils and neutrophils purified in the above sections, the cells were suspended in RPMI1640 supplemented with 0.1% BSA (not containing phenol red) which contains 3 μM Calcein-AM (Dojindo laboratories, fluorescence reagent), so that the cell count became 1×10^6 cells/ml. The suspension was incubated at 37° C. for 30 minutes. The cells were washed twice with the same culture medium, and suspended in the same medium so that the cell count became 1×10^6 cells/ml. […]
After the reaction, the chambers were removed, and to the lower chamber was added 66 μl of 10× lysis buffer (5% Triton X-100 dissolved in PBS, 10% ethanol). […] 200 μl of the cell lysate was transferred to 96 well black plate (237105, Nunc), and fluorescence intensities were measured using a fluorometer (ARVO™ SX, Wallac) with an excitation wavelength of 485 nm and a fluorescence wavelength of 535 nm.

[3] = tested on: PC3 human prostate cancer cells; test: Apoptosis analysis (annexin V / PI flow cytometry) in PC3 cells; type: cell-based; conditions: 20 μl of 100 μM 5-oxo-ETE added together with DHA, 2 hours
Method: PC3 human prostate cancer cells, which had been cultured in RPMI1640 culture medium supplemented with 10% fetal bovine serum were dissociated by trypsin-EDTA solution (GibcoBRL), and suspended in RPMI1640 culture medium supplemented with 0.5% fetal bovine serum. The cells were plated onto a 6 cm Petri dish to 2×10^5 cells/dish, and cultured at 37° C. for 18 hours in a CO2 incubator. The supernatant was removed and 1980 μl of the same medium was added, and 20 μl of 1 mM DHA was further added thereto, and the mixture was cultured at 37° C. for 2 hours in a CO2 incubator.
In addition, as a test in the presence of 5-oxo-ETE, 1960 μl of RPMI1640 culture medium supplemented with 0.5% fetal bovine serum was added, and 20 μl of a 100 μM 5-oxo-ETE solution and 20 μl of a 1 mM DHA solution were further added thereto, and the cells were cultured in a similar manner as described above.
The adhered cells were removed by a cell scraper, transferred to a 1.5 ml tube, and centrifuged at 800×g for 5 minutes at 4° C., to collect suspended and adhered cells. […] The cells were suspended in 100 μl of a FITC-Annexin solution, and after 15 minutes of reaction under light-shielded condition at room temperature, 300 μl of Binding buffer was added thereto, and the FITC-Annexin bound to the cells and propidium iodide (PI) uptake into the cells were measured, by means of flow cytometer [Becton Dickinson].

With `CCCCC/C=C\C/C=C\C/C=C\C=C\C(=O)CCCC(=O)O` [5-oxo-ETE, 5-oxo-6E,8Z,11Z,14Z-eicosatetraenoic acid] the cell migration ([1]; cells not expressing TG1019) was “did not”, the cell migration ([1]; cells stably expressing TG1019) was “showed 5-oxo-ETE-induced migration” and the migration of neutrophils [2] was “has an ability to make these cells migrate”. For the same compound, the “effect on DHA induction of apoptosis” value [3] was “the induction of apoptosis was inhibited”.
